Test [1] concerns tomato late blight fungi (Phytophthora infestans). Nature of the test: whole plant or invertebrate. Format: in vivo. To be noted: read-out: Test F control value class (tomato late blight).
For test [2], the system named is grape downy mildew fungus (Plasmopara viticola). The test is described as follows: Test Example G: grape downy mildew, spray treatment of grape plants. To be noted: read-out: Test G control value class (grape downy mildew).
Description: Test plants (grape variety: Neomuscat) were cultivated until three to four first leaves appeared after the sowing of seeds. In the test, the chemical solution was obtained by dissolving the compound of the present invention in a dimethylsulfoxide-methanol mixed solvent (volume ratio: 9/1) and appropriately diluting the resultant solution with well water so that the concentration was 250 ppm. The obtained chemical solution was sprayed to the test plants (2.5 ml/pot). The plants after the drying of the chemical liquid were inoculated with grape downy mildew fungus (Plasmopara viticola) by spraying a zoosporangial suspension of 1 to 2×10^4 zoosporangia/ml. After the inoculation, the plants were allowed to stand, for about 24 hours, in a moist chamber with the room temperature of 20° C. to promote the onset of disease. The degree of disease development after 7 to 10 days from the inoculation was investigated to evaluate the effect of the chemical solution.
(§1) With respect to each Test Example described above, the degree of disease development was evaluated as a value with increments of 0.05, regarding the degree of disease development for plants with no onset of disease as 0 and that for plants of untreated group as 3. Further, from the degrees of disease development, a control value was calculated according to the calculation formula below.
(§2) n=Degree of disease development of each chemical treated group
The test system of test [3] is wheat brown rust fungi (Puccinia recondita). Nature of the test: Test Example E: wheat brown rust, spray treatment of wheat plants. Format: in vivo. To be noted: control value=100{1-(n/3)}, read-out: Test E control value class (wheat brown rust).
For test [4], the system named is cucumber anthracnose fungi (Colletotrichum orbiculare). Nature of the test: Test Example H: cucumber anthracnose, spray treatment of cucumber plants. Particulars: in Cucumis sativus, read-out: Test H control value class (cucumber anthracnose).
Description: [Test Example H] Cucumber Anthracnose
Test plants (cucumber variety: Sagami Hanjiro) were cultivated until one first leaf appeared after the sowing of seeds. In the test, the chemical solution was obtained by dissolving the compound of the present invention in a dimethylsulfoxide-methanol mixed solvent (volume ratio: 9/1) and appropriately diluting the resultant solution with well water so that the concentration was 250 ppm. The obtained chemical solution was sprayed to the test plants (2.5 ml/pot). The plants after the drying of the chemical liquid were inoculated with cucumber anthracnose fungi (Colletotrichum orbiculare) by spraying a conidial suspension of 2 to 4×10^5 conidia/ml. After the inoculation, the plants were allowed to stand, for about 24 hours, in a moist chamber with the room temperature of 20 to 23° C. to promote the onset of disease. The degree of disease development after 6 to 10 days from the inoculation was investigated to evaluate the effect of the chemical solution.
as §1, §2
Test [5] concerns gray mold fungi (Botrytis cinerea). The test is described as follows: Test Example B: tomato gray mold, spray treatment of tomato plants. To be noted: in Solanum lycopersicum, read-out: Test B control value class (tomato gray mold).
Excerpt: [Test Example B] Tomato Gray Mold
Test plants (tomato variety: Oogata Fukuju) were cultivated until three to five first leaves (true leaves) appeared after the sowing of seeds. In the test, the chemical solution was obtained by dissolving the compound of the present invention in a dimethylsulfoxide-methanol mixed solvent (volume ratio: 9/1) and appropriately diluting the resultant solution with well water so that the concentration was 250 ppm. The obtained chemical solution was sprayed to the test plants (2.5 ml/pot). The plants after the drying of the chemical liquid were inoculated with gray mold fungi (Botrytis cinerea) by spraying a conidial suspension of 4 to 8×10^5 conidia/ml. After the inoculation, the plants were allowed to stand, for about 48 hours, in a moist chamber with the room temperature of 20 to 23° C. to promote the onset of disease. The degree of disease development after 2 to 3 days from the inoculation was investigated to evaluate the effect of the chemical solution.
as §1, §2
Test [6] concerns cabbage Alternaria sooty spot fungi (Alternaia brassicicola). Nature of the test: Test Example C: cabbage Alternaria sooty spot, spray treatment of cabbage plants. To be noted: control value=100{1-(n/3)}, read-out: Test C control value class (cabbage Alternaria sooty spot). Format: in vivo. The source says: [Test Example C] Cabbage Alternaria Sooty Spot
Test plants (cabbage variety: Shikidori) were cultivated until the cotyledons extended after the sowing of seeds.
<Control Value> Control value=100{1−(n/3)}

Test [7] relates to rice blast fungi (Magnaporthe grisea). The test is described as follows: whole plant or invertebrate. The test is classed as in vivo. Particulars: Pyricularia oryzae, read-out: Test A control value class (rice blast).

Structures are written as SMILES.

Take `O=c1c(Br)cn(-c2cccnc2Cl)c(-c2c(F)cc(F)cc2F)c1Br` [Compound 38, 3,5-dibromo-2′-chloro-2-(2,4,6-trifluorophenyl)-4H-[1,3′-bipyridin]-4-one]: the pest or weed control at 250 µg/mL in test [1], in test [3], in test [5], in test [6] and in test [7] was greater than 50% in each case. For the same compound, the pest or weed control at 250 ppm in test [2] and in test [4] was greater than 50% throughout.
Regarding `Cc1ccccc1-n1cc(C)c(=O)c(C)c1-c1c(F)cc(F)cc1F` [Compound 174, 3,5-dimethyl-1-(o-toluyl)-2-(2,4,6-trifluorophenyl)pyridin-4(1H)-one], the pest or weed control at 250 µg/mL is less than 50% in test [1]; greater than 50% in test [3]; greater than 50% in test [5]; greater than 50% in test [6]; greater than 50% in test [7]. Also, the pest or weed control at 250 ppm in test [2] and in test [4] was greater than 50% throughout.
As for `Cc1cc(-n2cc(Cl)c(=O)c(Br)c2-c2c(F)cc(F)cc2F)no1` [Compound 141, 3-bromo-5-chloro-1-(5-methylisoxazol-3-yl)-2-(2,4,6-trifluorophenyl)pyridin-4(1H)-one], the pest or weed control at 250 µg/mL in test [1] is less than 50%; in test [3], greater than 50%; in test [5], greater than 50%; in test [6], greater than 50%; in test [7], less than 50%. The pest or weed control at 250 ppm in test [2] and in test [4] was less than 50% throughout.
As to `O=c1c(Br)cn(-c2ccccc2Cl)c(-c2c(F)cc(F)cc2F)c1Br` [Compound 1, 3,5-dibromo-1-(2-chlorophenyl)-2-(2,4,6-trifluorophenyl)pyridin-4(1H)-one], the pest or weed control at 250 µg/mL in test [1] was less than 50%; in test [3], greater than 50%; in test [5], greater than 50%; in test [6] it was greater than 50%; in test [7] it was greater than 50%. For the same compound, the pest or weed control at 250 ppm in test [2] and in test [4] was greater than 50% throughout.
On to `CCC(C)Cn1cc(Cl)c(=O)c(Cl)c1-c1c(F)cc(F)cc1F` (centres unmarked) [Compound 162, 3,5-dichloro-1-(2-methylbutyl)-2-(2,4,6-trifluorophenyl)pyridin-4(1H)-one], for which the pest or weed control at 250 µg/mL in test [1] is less than 50%; in test [3] it was greater than 50%; in test [5] it was greater than 50%; in test [6] it was greater than 50%; in test [7], greater than 50%. Besides, the pest or weed control at 250 ppm in test [2] and in test [4] was greater than 50% throughout.
Consider `O=c1c(Cl)cn(Cc2ccccc2)c(-c2c(F)cc(F)cc2F)c1Br` [Compound 49, 1-benzyl-3-bromo-5-chloro-2-(2,4,6-trifluorophenyl)pyridin-4(1H)-one], for which the pest or weed control at 250 µg/mL in test [1], in test [3], in test [5], in test [6] and in test [7] was greater than 50% throughout. The pest or weed control at 250 ppm in test [2] and in test [4] was greater than 50% each time.
As for `Cc1onc(-n2cc(Cl)c(=O)c(Br)c2-c2c(F)cc(F)cc2F)c1Br` [Compound 142, 3-bromo-1-(4-bromo-5-methylisoxazol-3-yl)-5-chloro-2-(2,4,6-trifluorophenyl)pyridin-4(1H)-one], the pest or weed control at 250 µg/mL in test [1], in test [3], in test [5], in test [6] and in test [7] was greater than 50% in each case. The pest or weed control at 250 ppm in test [2] and in test [4] was greater than 50% in each case.
`O=c1c(Br)cn(-c2ccccc2Cl)c(-c2c(F)cc(F)cc2F)c1Cl` [Compound 2, 5-bromo-3-chloro-1-(2-chlorophenyl)-2-(2,4,6-trifluorophenyl)pyridin-4(1H)-one]: the pest or weed control at 250 µg/mL in test [1] is less than 50%; in test [3] it was greater than 50%; in test [5] it was greater than 50%; in test [6], greater than 50%; in test [7] it was greater than 50%. In addition, the pest or weed control at 250 ppm in test [2] and in test [4] was greater than 50% throughout.
On to `COc1cc(F)c(-c2c(Cl)c(=O)c(Cl)cn2-c2ccccc2Cl)c(F)c1` [Compound 5, 3,5-dichloro-1-(2-chlorophenyl)-2-(2,6-difluoro-4-methoxyphenyl)pyridin-4(1H)-one], for which the pest or weed control at 250 µg/mL in test [1] was less than 50%; in test [3], greater than 50%; in test [5], greater than 50%; in test [6], greater than 50%; in test [7] it was greater than 50%. The pest or weed control at 250 ppm in test [2] and in test [4] was greater than 50% throughout.
Turning to `COc1cc(F)c(-c2c(C)c(=O)c(C)cn2-c2ccccc2C)c(F)c1` [Compound 175, 2-(2,6-difluoro-4-methoxyphenyl)-3,5-dimethyl-1-(o-toluyl)pyridin-4(1H)-one], the pest or weed control at 250 µg/mL in test [1] was less than 50%; in test [3], greater than 50%; in test [5], greater than 50%; in test [6], greater than 50%; in test [7], greater than 50%. The pest or weed control at 250 ppm in test [2] and in test [4] was greater than 50% throughout.
Take `O=c1c(Cl)cn(-c2ccccc2Cl)c(-c2c(F)cc(F)cc2F)c1Cl` [Compound 4, 3,5-dichloro-1-(2-chlorophenyl)-2-(2,4,6-trifluorophenyl)pyridin-4(1H)-one]: the pest or weed control at 250 µg/mL in test [1] is less than 50%; in test [3], greater than 50%; in test [5], greater than 50%; in test [6] it was greater than 50%; in test [7] it was greater than 50%. The pest or weed control at 250 ppm in test [2] and in test [4] was greater than 50% in each case.

The values are drawn from patent US11000038B2, “Pyridone compounds and agricultural and horticultural fungicides containing the same as active ingredients” (priority 2017, dated 2021).
